This is an account of results in patent US20230181584A1, “METHOD OF TREATING CANCER HAVING AN ACTIVATED HEDGEHOG PATHWAY” (Endeavor Biomedicines, Inc., priority 2021, published 2023).

Series [1] deals with extensive stage small cell lung cancer (SCLC). The series can be described thus: HHBE: Phase Ib/2 study of taladegib with carboplatin and etoposide in extensive stage SCLC. The format is in vivo, human. The conditions noted are these: in combination with carboplatin and etoposide, N=26, RECIST v1.1. From the text: (§1) Approximately 192 study participants have received at least one dose of taladegib in sponsor-initiated and -controlled trials for the treatment of advanced cancers. The clinical trials were: • q. HHBB: Phase 1 dose-escalation study to evaluate the safety and tolerability of taladegib in patients with advanced cancer. • r. HHBE: Phase Ib/2 double-blind randomized study of the Human smoothened (hSmo) antagonist taladegib in combination with carboplatin and etoposide followed by taladegib versus carboplatin and etoposide plus placebo followed by placebo in patients with extensive stage small cell lung cancer (SCLC). • s. HHBH: Phase 1 study of taladegib in Japanese patients with advanced solid tumors. • t. HIPROC: An investigator-initiated Phase 1a/1b dose-escalation study of taladegib in combination with weekly intravenous paclitaxel in patients with advanced solid cancers. • u. HHBF: A Phase 1 ^14C metabolism study of 100 mg of taladegib in healthy subjects. • v. HHBG: A Phase 1 single ascending dose study of taladegib in healthy subjects.
(§2) Participants include approximately 156 advanced cancer patients from studies HHBB (N=95), HHBE (N=26), HHBH (N=19), HIPROC (N=16) and 36 healthy volunteers from studies HHBG (N=30) and HHBF (N=6).
(§3) The primary tumor type enrolled was BCC. Additionally, responses in medulloblastoma (monotherapy), SCLC (in combination with carboplatin and etoposide) and ovarian cancer (in combination with paclitaxel) were also observed.

The test system of series [2] is advanced cancer. The series can be described thus: HHBB: Phase 1 dose-escalation study of taladegib in patients with advanced cancer. In kind it is in vivo, human. The conditions noted are these: N=84, monotherapy, RECIST v1.1.
Excerpt: as §1, §2, §3

Series [3] in a line: Safety in clinical trials of taladegib (healthy volunteers and advanced cancer patients). In kind it is in vivo, human.
Excerpt: as §1, §2
As expected, AEs associated with chemotherapy were also observed when taladegib was used in combination with anti-neoplastic agents.

The subject of a further series is advanced solid cancers. The series can be described thus: HIPROC: Phase 1a/1b dose-escalation study of taladegib with weekly intravenous paclitaxel. Conditions: in combination with weekly intravenous paclitaxel, N=16, RECIST v1.1. In kind it is in vivo, human.
Excerpt: as §1, §2, §3

In series [4] the test system is advanced cancer. The series can be described thus: HHBB addendum. The conditions noted are these: N=11, RECIST v1.1. In kind it is in vivo, human.
Excerpt: as §3

For another series, the system named is advanced solid tumors. The series can be described thus: HHBH: Phase 1 study of taladegib in Japanese patients with advanced solid tumors. The format is in vivo, human. The conditions noted are these: N=19, RECIST v1.1.
Excerpt: as §1, §2, §3

The subject of the next series is Gli1 activity. The conditions noted are these: Daoy cells; as described in U.S. Pat. No. 9,000,023; read-out: IC50, inhibition of Gli1 activity; cited from earlier work.
The subject of series [5] is advanced cancer. Kind of series: Clinical benefit across all completed studies of taladegib in advanced cancer (total). In kind it is in vivo, human.
Excerpt: as §1, §2, §3

The conditions of series [6]: background statement on Hh pathway inhibitors; cited from earlier work.
[7] abbreviates: Total of all completed studies, N=156.

Consider `CN(C(=O)c1ccc(F)cc1C(F)(F)F)C1CCN(c2nnc(-c3ccnn3C)c3ccccc23)CC1` [Taladegib, 4-Fluoro-N-methyl-N-(1-(4-(1-methyl-1H-pyrazol-5-yl)phthalazin-1-yl)piperidin-4-yl)-2-(trifluoromethyl)benzamide], for which the “CR (complete response), number of patients” value is on record as 0 (0%) in series [1]; 5 in the series on advanced cancer [2]; 0 (0%) with advanced solid cancers; 1 in the series with advanced cancer [4]; 0 (0%) with advanced solid tumors; 6 with advanced cancer [5] (setting [7]). The “CR (complete response), percent of patients” value in series [1] was 0 (0%); in the series with advanced cancer [2], 6%; in the series on advanced solid cancers, 0 (0%); with advanced cancer [4] it was 9%; with advanced solid tumors it was 0 (0%); with advanced cancer [5] (setting [7]) it was 4%. Also, the “Clinical Benefit, number of patients” value in series [1] was 21; with advanced cancer [2] it was 48; with advanced solid cancers, 10; in the series on advanced cancer [4] it was 4; in the series with advanced solid tumors it was 5; in the series on advanced cancer [5] (setting [7]), 94. Moreover, the “Clinical Benefit, percent of patients” value in series [1] is given as 81%; in the series with advanced cancer [2], 57%; in the series on advanced solid cancers, 62%; with advanced cancer [4], 36%; with advanced solid tumors, 26%; with advanced cancer [5] (setting [7]), 60%. For the same molecule, the “PR (partial response), number of patients” value in [1] came to 14; with advanced cancer [2] it was 17; with advanced solid cancers, 4; with advanced cancer [4], 0; in the series on advanced solid tumors it was 1; in the series with advanced cancer [5] (setting [7]), 42. Further, the “PR (partial response), percent of patients” value stood at 54% in series [1]; 20% in the series on advanced cancer [2]; 25% with advanced solid cancers; 5% in the series with advanced solid tumors; 27% in the series on advanced cancer [5] (setting [7]). Besides, the Safety profile result in [3] (advanced cancer patients, monotherapy and combination with anti-neoplastic agents) is “manageable safety profile”. Besides, in series [3] (as a monotherapy), the “Most commonly observed AEs” value is “nausea, diarrhea, dysgeusia, fatigue, decreased appetite, alopecia, vomiting, muscle spasm, constipation, weight decrease, and headache”. In addition, the “Important potential risks associated with treatment” value in series [3] (on the basis of preclinical and clinical data and information for molecules in the same therapeutic class) is “hepatic injury, embryotoxicity and teratogenicity, and rhabdomyolysis”. Moreover, in the series on Gli1 activity, the 50% inhibitory concentration (IC50) (in general, the midpoint of a concentration-inhibition curve) was ~2.4 nM. The “Clinical (RECIST v1.1) responses by dose” value in the series on advanced cancer [5] (across all four multiple-dose studies in patients) was “responses were observed at all doses”. For the same molecule, in the series on advanced cancer [5] (in combination with carboplatin and etoposide), the “Responses in SCLC” value is “observed”. Moreover, the “Responses in ovarian cancer” value with advanced cancer [5] (in combination with paclitaxel) is “observed”. For the same molecule, the Responses in medulloblastoma result in the series on advanced cancer [5] (monotherapy) is “observed”.
For `CC1=C2C[C@H]3[C@@H](CC[C@@H]4C[C@H](NS(C)(=O)=O)CC[C@@]43C)[C@@H]2CC[C@@]2(C1)O[C@@H]1C[C@H](C)CN[C@H]1[C@H]2C` [saridegib], the Toxicity result in series [6] was “unacceptable toxicity”.
Regarding `CS(=O)(=O)c1ccc(C(=O)Nc2ccc(Cl)c(-c3ccccn3)c2)c(Cl)c1` [vismodegib], the Toxicity result in series [6] is “unacceptable toxicity”.
